In patent US8440610B2, “Mapkap kinase-2 as a specific target for blocking proliferation of P53-defective cells” (Massachusetts Institute of Technology, priority 2004, dated 2013):

Assays:
[1] = system: H-Ras-V12 transformed p53−/− MEFs; test: Tumor regression assay of established tumors in nude mice; type: in vivo; conditions: MK2 depleted tumors; for tumor diameter at start of treatment: before treatment; for tumor diameter after fourteen days of treatment: cisplatin 2 mg/kg or doxorubicin 4 mg/kg intraperitoneal 3× per week
Procedure: For tumor regression assays, H-Ras-V12 transformed p53^−/− MEFs were stably transfected with a lentiviral transfer vector encoding for shRNA targeting either MAPKAP kinase-2 or luciferase. 10^6 cells were injected into the flanks of nude mice as above, and tumors were allowed to form for twelve days. Mice were then treated with either cisplatin (2 mg/kg, intraperitoneal administration 3× per week) or doxorubicin (4 mg/kg, intraperitoneal administration 3× per week), monitored for a total of twenty-six days, and then sacrificed. Tumor diameter was measured periodically during growth and tumors were weighed at the endpoint. Experiments were performed in quadruplicate, and data plotted as sample means with error bars showing standard deviation.
We investigated whether the chemo-sensitizing effect of MK2 depletion in p53 null cells in culture could also be observed when pre-existing p53 deficient tumors were treated with DNA damaging drugs in vivo. In these experiments HRas-V12 transformed p53^−/− MEFs were stably transfected with control shRNA or MK2 shRNA expressed from a murine U6 promoter, using a lentiviral delivering system (FIG. 18A). The lentiviral transfer vector also encoded GFP under the control of a CMV promoter, allowing for fluorescent detection of tumors in situ. Tumors were induced by injection of 10^6 cells into the flanks of nude mice. Twelve days later ˜1 cm diameter tumors had formed at all injection sites, and treatment with cisplatin, doxorubicin, or vehicle was begun (FIG. 18B). In the absence of treatment with DNA damaging drugs, the tumors arising from the MK2 depleted cells in the right flanks of these animals grew slightly larger than those of the luciferase shRNA control cells in the left flanks (FIG. 18B-18D). […] Tumors depleted of MK2 shrank from 1.3 cm to 0.4 cm over fourteen days when treated with cisplatin, and from 1.4 to 0.5 cm when treated with doxorubicin. Thus, the sensitizing effect of MK2 depletion on DNA damage induced cell death in p53-deficient primary cells observed in cell culture was also maintained in vivo.

U2OS cells = test: Clonogenic survival assay in U2OS cells; type: cell-based, human; conditions: 10 μM cisplatin or 1 μM doxorubicin for eight hours, colonies after eight days
Procedure: The experiments in FIGS. 15A-15C and 16A-16D indicate that MAPKAP kinase-2 is critical for cisplatin- and doxorubicin-triggered G1/S and G2/M arrest. These checkpoint defects in MAPKAP kinase-2 depleted cells might render them more sensitive to the antiproliferative and cytotoxic effects of chemotherapy. To investigate this, control or MAPKAP kinase-2 knockdown U2OS cells were mock treated or incubated with increasing doses of cisplatin or doxorubicin for eight hours, washed, trypsinized and replated, and assayed for colony formation eight days later (FIGS. 16A-16B). […] For example, luciferase shRNA cells treated with either 10 μM cisplatin or 1 μM doxorubicin formed ˜40% of the number of colonies as those formed by untreated cells, while in MAPKAP kinase-2-depleted cells, these same cisplatin and doxorubicin treatments reduced the number of colonies to only 4% and 2%, respectively, of those seen in the untreated cells.
Clonogenic survival assay. Cells were either mock-treated or treated with increasing doses of doxorubicin or cisplatin. After eight hours of treatment, cells were washed three times with growth media and three times with PBS, trypsinized and replated at a concentration of 5000 cells/10 cm^2 dish. After eight days, cells were fixed and stained with 0.1% crystal violet (Sigma-Aldrich). Colonies consisting of >50 cells were counted, and surviving fractions were determined by normalization against untreated cells. Experiments were performed in triplicate and are plotted as mean values with standard deviations indicated by the error bars.

p38 MAPK/MK2 pathway = test: Immunoblot of p38 MAPK/MK2 activation after DNA-damaging drugs in U2OS cells; type: cell-based, human; conditions: U2OS cells, 10 μM drug
Procedure: 14-3-3 pull-down assays, immunoblotting, and immunofluorescence. U2OS cells were lysed in lysis buffer: 50 mM Tris/HCl, pH7.8, 150 mM NaCl, 1.0% NP-40, 5 mM EDTA, 2 mM DTT, 8 μg/ml pepstatin, 8 μg/ml aprotinin, 8 μg/ml leupeptin, 2 mM Na3VO4, 10 mM NaF, 1 μM microcystin for twenty minutes at 4° C. Clarified lysates (0.5-2 mg protein) were incubated with 20 μL glutathione beads or amylose beads containing 10-20 μg 14-3-3-GST or 14-3-3-MBP, respectively, for 120 minutes at 4° C. Following washing, lysates and bead-bound proteins were analysed by SDS-PAGE, followed by transfer to PVDF membranes and immunoblotted with the indicated antibodies. For immunofluorescence experiments, U2OS cells were seeded onto 18 mm^2 coverslips, irradiated or mock-treated, fixed, extracted, and immunostained as described previously (Clapperton et al., Nat. Struct. Mol. Biol., 11:512-518, 2004).

[2] = MAPKAP kinase-2-depleted U2OS cells

| SMILES | tumor diameter at start of treatment [1] | tumor diameter after fourteen days of treatment [1] | number of colonies relative to untreated cells (U2OS cells; [2]) | number of colonies relative to untreated cells (U2OS cells; luciferase shRNA U2OS cells) | time to MK2 activation (reduction in electrophoretic mobility, pThr-344) (p38 MAPK/MK2 pathway) |
| --- | --- | --- | --- | --- | --- |
| N.N.[Cl][Pt][Cl] [cisplatin] | 1.3 cm | 0.4 cm | 4% | ~40% | Within one hour |
| COc1cccc2c1C(=O)c1c(O)c3c(c(O)c1C2=O)C[C@@](O)(C(=O)CO)C[C@@H]3O[C@H]1C[C@H](N)[C@H](O)[C@H](C)O1 [doxorubicin] | 1.4 cm | 0.5 cm | 2% | ~40% | Within one hour |
